The source of these data is article PMC6982996, “Discovery of [1,2,4]Triazole Derivatives as New Metallo-β-Lactamase Inhibitors” (Molecules, 2019).

In general, inhibition refers to the relative decrease from the control value, in per cent. Usually IC50 stands for the point on the concentration scale where inhibition reaches its midpoint. Usually Ki stands for a measure of affinity in units of concentration, obtained from inhibition or displacement.

Experiment [1] has as its target T1, NDM-1 (Klebsiella pneumoniae, UniProt C7C422).
T1 construct: Li's Laboratory, Sichuan University (collaborator, a gift and not a purchase)
The experiment is described as follows: NDM-1 inhibition assay (FC5 fluorogenic substrate). Type of experiment: biochemical. To be noted: mean ± SD (n = 3). On the procedure:
(§1) Then, we tested all the target compounds against other B1 MBL enzymes, including NDM-1, IMP-1, VIM-1, and VIM-5 (Table 1); all the assay conditions (including enzyme/substrate concentrations) are the same as that previously used. […]. […].
(§2) All the target compounds were freshly prepared in 100 mM DMSO stock solutions. All the MBL and SBL enzymes used in this study were obtained from our collaborator, Li’s Laboratory in Sichuan University. Each compound was initially evaluated for inhibitory activity to MBL and SBL enzymes at 100 and 10 μM, by preincubation with the appropriate amount of enzymes in the assay buffer for 10 min, followed by adding the substrate FC5 to initiate the reactions, and monitoring the fluorescence at λex of 380 nm and λem of 460 nm. The IC50 values for the compounds (with 10 different concentrations in threefold dilution) were further determined. All determinations were tested in triplicate. The IC50 values were obtained from the plot of activity versus inhibitor concentration by using the GraphPad Prism software.

Another experiment concerns the target T2, OXA-48 (Klebsiella pneumoniae, UniProt Q6XEC0).
T2 construct: Li's Laboratory, Sichuan University (collaborator, a gift and not a purchase)
The experiment in a line: OXA-48 SBL inhibition assay (counter screen). Format: biochemical. Here is the method:
(§3) Considering that MBLs and SBLs are two catalogs of β-lactamases, we further tested the compound 5l against some representative SBL enzymes, including KPC-2 (Klebsiella pneumoniae carbapenemase 2), TEM-1, AmpC, and OXA-48 (Oxacillinase 48), with the aim of investigating its selectivity; particularly, this is used as a counter screening to indicate the specific inhibition to MBLs. […] […].
as §2
In general terms: The purpose of a counterscreen is to sort out artefacts and off-target activity.

A further experiment relates to AmpC. The experiment is described as follows: AmpC SBL inhibition assay (counter screen). Type of experiment: biochemical. To be noted: 10 μM; mean ± SD (n = 3). On the procedure: (§4) Considering that MBLs and SBLs are two catalogs of β-lactamases, we further tested the compound 5l against some representative SBL enzymes, including KPC-2 (Klebsiella pneumoniae carbapenemase 2), TEM-1, AmpC, and OXA-48 (Oxacillinase 48), with the aim of investigating its selectivity; particularly, this is used as a counter screening to indicate the specific inhibition to MBLs.
as §2

Experiment [2] has as its target T3, VIM-2 (Escherichia coli, UniProt Q5U7L7).
T3 construct: Li's Laboratory, Sichuan University (collaborator, a gift and not a purchase)
The experiment in a line: VIM-2 inhibition assay (FC5 fluorogenic substrate). Format: biochemical. To be noted: for IC50: 10 concentrations in threefold dilution, triplicate, read-out: IC50 against VIM-2; for inhibition at 10 µM / inhibition at 100 µM: mean ± SD (n = 3). On the procedure: as §2

A further experiment concerns the target T4, VIM-1 (Pseudomonas aeruginosa, UniProt A0A0F7KYQ8).
T4 construct: Li's Laboratory, Sichuan University (collaborator, a gift and not a purchase)
The experiment in a line: VIM-1 inhibition assay (FC5 fluorogenic substrate). Format: biochemical. To be noted: mean ± SD (n = 3). Here is the method:
as §1, §2

In another experiment the test system is VIM-5. The experiment in a line: VIM-5 inhibition assay (FC5 fluorogenic substrate). Type of experiment: biochemical. To be noted: mean ± SD (n = 3). Here is the method: as §1, §2
A further experiment addresses T5, KPC-2 (Klebsiella pneumoniae, UniProt Q9F663).
T5 construct: Li's Laboratory, Sichuan University (collaborator, a gift and not a purchase)
The experiment in a line: KPC-2 SBL inhibition assay (counter screen). Format: biochemical. To be noted: mean ± SD (n = 3). Here is the method:
as §3, §2

For the next experiment, the target named is T6, TEM-1 (Escherichia coli, UniProt P62593).
T6 construct: Li's Laboratory, Sichuan University (collaborator, a gift and not a purchase)
The experiment in a line: TEM-1 SBL inhibition assay (counter screen). To be noted: mean ± SD (n = 3). Type of experiment: biochemical. On the procedure: as §4, §2

Experiment [3] has as its target T7, IMP-1 (Serratia marcescens, UniProt P52699).
T7 construct: Li's Laboratory, Sichuan University (collaborator, a gift and not a purchase)
The experiment is described as follows: IMP-1 inhibition assay (FC5 fluorogenic substrate). Type of experiment: biochemical. To be noted: for inhibition at 10 µM / inhibition at 100 µM: mean ± SD (n = 3). On the procedure: as §1, §2

Experiment [4] concerns the target T1, NDM-1. To be noted: Figure 1, reported inhibitors; read-out: NDM-1 IC50 (reported MBL inhibitors); cited from earlier work.
The target of experiment [5] is T3, VIM-2.
Another experiment relates to B3 L1 MBL. More on the design: method as in PMID 17999929, PMID 20625539, PMID 25893049. To be noted: Figure 1, reported inhibitor; read-out: L1 IC50 (reported MBL inhibitors); cited from earlier work.
The target in experiment [6] is T7, IMP-1. To be noted: Figure 1, reported inhibitors; read-out: IMP-1 IC50 (reported MBL inhibitors); cited from earlier work.
The subject of the next experiment is CfiA. To be noted: Figure 1, reported natural product; read-out: CfiA IC50 (reported MBL inhibitors); cited from earlier work.
The mark [7] stands for this setting: Figure 1, reported inhibitors; read-out: VIM-2 IC50 (reported MBL inhibitors); cited from earlier work.

Like-named read-outs stand apart in the source and are kept apart here. Where only a bound is given, the exact number is not on record here.

T1 sequence (C7C422 29-270, looked up, species assumed): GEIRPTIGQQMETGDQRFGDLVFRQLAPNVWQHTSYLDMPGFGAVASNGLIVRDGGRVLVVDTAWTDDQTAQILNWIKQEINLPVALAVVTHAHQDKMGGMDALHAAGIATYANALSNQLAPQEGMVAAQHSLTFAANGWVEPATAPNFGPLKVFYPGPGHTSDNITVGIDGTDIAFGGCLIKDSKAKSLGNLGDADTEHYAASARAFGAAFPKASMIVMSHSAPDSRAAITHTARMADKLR
T6 sequence (P62593 24-286 limits assumed): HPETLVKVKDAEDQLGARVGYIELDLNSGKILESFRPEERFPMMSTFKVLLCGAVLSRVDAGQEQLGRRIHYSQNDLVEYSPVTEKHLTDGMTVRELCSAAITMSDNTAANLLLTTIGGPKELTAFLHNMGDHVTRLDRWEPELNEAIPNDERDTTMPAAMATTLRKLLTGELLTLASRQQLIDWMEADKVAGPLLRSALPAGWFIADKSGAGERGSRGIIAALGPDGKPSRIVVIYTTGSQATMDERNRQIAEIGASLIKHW
T2 sequence (Q6XEC0 23-265 limits assumed): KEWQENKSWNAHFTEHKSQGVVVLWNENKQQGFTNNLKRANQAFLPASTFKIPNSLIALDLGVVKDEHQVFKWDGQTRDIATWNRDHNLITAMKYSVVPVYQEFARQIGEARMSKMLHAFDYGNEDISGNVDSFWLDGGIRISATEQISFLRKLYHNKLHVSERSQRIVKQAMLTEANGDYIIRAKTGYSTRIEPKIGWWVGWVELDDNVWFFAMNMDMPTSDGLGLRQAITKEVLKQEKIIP
T7 sequence (P52699 19-246 limits assumed): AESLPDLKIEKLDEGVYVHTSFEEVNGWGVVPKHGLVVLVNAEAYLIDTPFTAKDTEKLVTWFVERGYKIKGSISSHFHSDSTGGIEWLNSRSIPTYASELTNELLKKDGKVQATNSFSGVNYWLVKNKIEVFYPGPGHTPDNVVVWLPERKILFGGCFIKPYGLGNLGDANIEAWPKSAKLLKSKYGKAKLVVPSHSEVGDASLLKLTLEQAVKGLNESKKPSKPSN
T5 sequence (Q9F663 25-293, looked up): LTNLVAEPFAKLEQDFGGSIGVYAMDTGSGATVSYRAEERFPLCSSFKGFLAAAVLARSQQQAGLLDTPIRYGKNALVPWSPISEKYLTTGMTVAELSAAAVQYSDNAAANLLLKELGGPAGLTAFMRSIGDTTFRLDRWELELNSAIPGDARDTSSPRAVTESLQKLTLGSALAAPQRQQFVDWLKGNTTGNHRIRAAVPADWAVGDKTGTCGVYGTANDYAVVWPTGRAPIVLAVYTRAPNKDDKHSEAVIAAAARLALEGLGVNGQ

As to `Brc1ccc(-c2nnc3n2CCCS3)cc1` [5l, 3-(4-Bromophenyl)-6,7-dihydro-5H-[1,2,4]triazolo[3,4-b][1,3]thiazine], the inhibition at 10 µM on NDM-1 [1] was 10%; on OXA-48 (read-out: Inhibition % OXA-48), 7 ± 1%; at VIM-2 [2], 53%; against KPC-2 (10 μM), 2 ± 1%; against TEM-1 (10 μM) it was 9 ± 1%. For the same compound, the inhibition at 100 µM worked out at 8 ± 1% against NDM-1 [1]; 17 ± 2% at OXA-48 (read-out: Inhibition % OXA-48); 86 ± 5% against VIM-2 [2]; 23 ± 1% at VIM-1; 8 ± 2% on KPC-2 (100 μM); 20 ± 3% against TEM-1 (100 μM). For the same compound, at OXA-48 (100 μM, mean ± SD (n = 3)), the “Inhibition % OXA-48” value was “No or low inhibitory activities”. Further, the “Inhibition % AmpC” value with AmpC turned out to be 13 ± 2%. Further, the half-inhibitory concentration (IC50) at VIM-2 [2] came to 38.4 µM. The “Inhibition % VIM-5” value in the experiment with VIM-5 (@ 100 μM) is on record as 33 ± 2/– %. Besides, the “Inhibition % KPC-2” value on KPC-2 (100 μM) was “No or low inhibitory activities”. Besides, the “Inhibition % TEM-1” value on TEM-1 (100 μM) is “No or low inhibitory activities”.
As to `c1coc(-c2nnc3n2CCCS3)c1` [10a, 3-(Furan-2-yl)-6,7-dihydro-5H-[1,2,4]triazolo[3,4-b][1,3]thiazine], the inhibition at 10 µM is 16% against NDM-1 [1], 22% at VIM-2 [2] and 6% at IMP-1 [3]. Besides, the inhibition at 100 µM at NDM-1 [1] turned out to be 15 ± 1%; against VIM-2 [2], 32 ± 4%; at VIM-1, 24 ± 3%; on IMP-1 [3] it was 5 ± 1%. The “Inhibition % VIM-5” value with VIM-5 (@ 100 μM) is reported as 11 ± 1/– %.
On to `c1csc(-c2nnc3n2CCCS3)c1` [10b, 3-(Thiophen-2-yl)-6,7-dihydro-5H-[1,2,4]triazolo[3,4-b][1,3]thiazine], for which the inhibition at 10 µM against NDM-1 [1] is 8%; at VIM-2 [2], 16%; on VIM-1 (@ 10 μM), 32%; at IMP-1 [3], 27%. For the same compound, the inhibition at 100 µM against NDM-1 [1] was determined as 12 ± 2%; at VIM-2 [2], 30 ± 3%; at VIM-1, 30 ± 2%; on IMP-1 [3], 57 ± 6%. Moreover, the 50% inhibitory concentration (IC50) at IMP-1 [3] (10 concentrations in threefold dilution, triplicate, read-out: IC50 against IMP-1) is > 100 µM. Besides, the “Inhibition % VIM-5” value with VIM-5 (@ 10 μM) was 21 ± 2%; in the experiment on VIM-5 (@ 100 μM) it was 18 ± 2%.
Turning to `C[C@H](CS)C(=O)N[C@@H](Cc1coc2ccccc12)B(O)O` [III], the IC50 on NDM-1 [4] is 37.9 µM; on VIM-2 [5] (setting [7]) it was 0.44 µM.
Regarding `C[C@H](CS)C(=O)N[C@@H](C(=O)O)c1ccc(O)cc1` [II], the IC50 is 3.57 µM at NDM-1 [4] and 0.0137 µM at VIM-2 [5] (setting [7]).
As for `O=C(CSc1nnc(-c2ccccc2C(=O)O)[nH]1)Nc1nc2ccccc2s1` [IV], the Ki at VIM-2 [5] (Figure 1, reported inhibitor; read-out: VIM-2 Ki (reported MBL inhibitors); cited from earlier work) was 1.2 µM.
`NCCN[C@H]1CC[C@H](CC(=O)N[C@H]2Cc3cccc(C(=O)O)c3OB2O)CC1` [IX, taniborbactam]: the concentration for half-maximal inhibition (IC50) on VIM-2 [5] (setting [7]) was 0.0005 µM.
For the compound `Cc1ccccc1-c1nnc(S)n1/N=C/c1ccccc1C(=O)O` [V], in the experiment with B3 L1 MBL, the half-maximal inhibitory concentration (IC50) was 15 µM.
On to `N[C@@H](CN[C@@H](CN[C@@H](CC(=O)O)C(=O)O)C(=O)O)C(=O)O` [XI, AMA], for which the IC50 on NDM-1 [4] is 4 µM; on VIM-2 [5] (setting [7]), 9.6 µM.
`O=C(/C=C/c1ccc(O)c(O)c1)O[C@H](Cc1ccc(O)c(O)c1)C(=O)O` [XII, Rosmarinic acid]: the IC50 at VIM-2 [5] (read-out: VIM-2 IC50 (reported MBL inhibitors); Figure 1, reported inhibitors; cited from earlier work) is 41.5 µM.
As for `CO[C@@H]1O[C@@H](C)Cc2oc3cc(O)c(O)c(C(=O)O)c3c(=O)c21` [X], the IC50 was 113 µM at IMP-1 [6] and 29 µM with CfiA.
Consider `Oc1ccccc1-c1nnc2n1CCCS2` [compound 6, 2-(6,7-Dihydro-5H-[1,2,4]triazolo[3,4-b][1,3]thiazin-3-yl)phenol], for which the figures for the inhibition at 10 µM at NDM-1 [1], against VIM-2 [2] and against IMP-1 [3] were 21%, 35% and 5%, respectively. For the same compound, the inhibition at 100 µM at NDM-1 [1] is 26 ± 2%; on VIM-2 [2], 57 ± 5%; against VIM-1 it was 25 ± 3%; at IMP-1 [3] it was 30 ± 3%. In addition, at VIM-2 [2], the half-inhibitory concentration (IC50) was > 100 µM. Also, in the experiment with VIM-5 (@ 100 μM), the “Inhibition % VIM-5” value is recorded as 10 ± 2/– %.
For the compound `O=C(O)c1ccccc1-c1nnc2n1CCCS2` [compound 14, 2-(6,7-Dihydro-5H-[1,2,4]triazolo[3,4-b][1,3]thiazin-3-yl)benzoic acid], the inhibition at 10 µM was 10% against NDM-1 [1], 21% at VIM-2 [2] and 18% against IMP-1 [3]. Moreover, the inhibition at 100 µM turned out to be 7 ± 1% against NDM-1 [1], 26 ± 2% on VIM-2 [2], 22 ± 3% at VIM-1 and 15 ± 2% on IMP-1 [3]. In addition, the “Inhibition % VIM-5” value in the experiment with VIM-5 (@ 100 μM) is listed as 11 ± 1/– %.
Turning to `O=C(O)c1ccccc1-c1nnc2n1C(=O)CS2` [compound 15, 2-(5-Oxo-5,6-dihydrothiazolo[2,3-c][1,2,4]triazol-3-yl)benzoic acid], the figures for the inhibition at 10 µM against NDM-1 [1], on VIM-2 [2] and on IMP-1 [3] were 10%, 18% and 19%, respectively. Besides, the inhibition at 100 µM was 8 ± 1% against NDM-1 [1], 21 ± 2% at VIM-2 [2], 25 ± 2% against VIM-1 and 13 ± 1% against IMP-1 [3]. The “Inhibition % VIM-5” value in the experiment with VIM-5 (@ 100 μM) is on record as 10 ± 2/– %.
